Experimental data reported in paper PMC12281142, “A potent phenylalkylamine disrupts mycobacterial membrane bioenergetics and augments bactericidal activity of bedaquiline” (iScience, 2025).
≈ marks a conversion by molar mass, not a printed value. Where two headings read alike, the source gives them in different places.

What was measured:
Mab abscessus ATCC 19977 = experiment: MIC against Mab abscessus ATCC 19977; format: cell-based, Mycobacterium abscessus subsp. abscessus; details: for MIC90: read-out: MIC90 Mab abscessus ATCC 19977; for MIC50 Mab abscessus ATCC 19977 / MIC50: 3 days; for MIC50: ATCC19977, 72 h
M. bovis BCG [1] = format: cell-based, Mycobacterium bovis BCG
[2] = test system: Mab bolletii CCUG 50184-T; experiment: MIC against Mab bolletii CCUG 50184-T; format: cell-based, Mycobacterium abscessus subsp. bolletii; details: for MIC50 Mab bolletii CCUG 50184-T / MIC50: 3 days; for MIC50: CCUG50184, 72 h
Vero E6 = experiment: Cytotoxicity in Vero E6 cells; format: cell-based, African green monkey; details: 48 h, growth suppressed by 50% vs untreated
Protocol: (§1) To each well in a 96-well plate, 50,000 cells in 100 μL media were seeded. Vero E6 and HepG2 cells were incubated overnight in DMEM for cell adherence at 37°C and 5% CO2. The media was removed from the wells and 100 μL solution made up of fresh DMEM media (99 μL) and the test compound (1 μL from a DMSO stock solution that was […] more concentrated than the final concentration in the well) was then added to each well. DMSO content of each well was consistently kept at 0.5 %v/v. Treated plates were incubated for 48 h (5% CO2, 37°C), after which 10 μL of Celltitre 96 Aqueous One Solution was added to each well, without removal of media, and incubated for a further 3 h. Subsequently, absorbance readings were taken at 490 nm on a Tecan GENios Microplate Reader.
(§2) Cell viability was determined from the expression: Cellviability(%)={[Absorbance(cells+cpd)−Absorbance(cpd)]/[Absorbance(cells+vc)−Absorbance(vc)]}×100% where Absorbance (cells + cpd) = absorbance of wells containing cells and test compound in vehicle (media +0.5% DMSO); Absorbance (cpd) = absorbance of wells containing test compound in vehicle without cells (compound control); Absorbance (cells + vc) = absorbance of wells containing cells in vehicle (vc) only (untreated cells); Absorbance (vc) = absorbance of wells containing vehicle without cells (vehicle control). The percentage viability readings were plotted against log(concentration) on GraphPad Prism (Version 7.0, San Diego, CA) to give a sigmoidal curve, from which IC50, defined as the concentration of the compound that reduced cell viability by 50%, was obtained. At least 3 separate determinations were carried out.

[3] = test system: Mab massiliense CCUG 48898-T; experiment: MIC against Mab massiliense CCUG 48898-T; format: cell-based, Mycobacterium abscessus subsp. massiliense; details: for MIC50 Mab massiliense CCUG 48898-T / MIC50: 3 days; for MIC50: CCUG48898, 72 h
M. bovis BCG [4] = experiment: microbe, parasite or virus in culture; format: cell-based, Mycobacterium bovis BCG
HepG2 = experiment: Cytotoxicity in HepG2 cells; format: cell-based, human; details: 48 h, growth suppressed by 50% vs untreated
Protocol: as §1, §2

Mtb H37Rv = experiment: MIC by broth microdilution against Mtb H37Rv; format: cell-based, Mycobacterium tuberculosis; details: incubation 5 days; for MIC50 Mtb H37Rv: first value of cell MIC50/MIC90; for MIC90: second value of cell MIC50/MIC90, read-out: MIC90 Mtb H37Rv
M. bovis BCG [5] = format: cell-based, Mycobacterium bovis BCG; remark: listed apart in the source
clinical isolates of Mab = experiment: MIC50 against Mab clinical isolates; format: cell-based, Mycobacterium abscessus; details: for MIC50: Mycobacteroides abscessus
Mab complex = experiment: MIC against Mab complex (summary over the 3 subspecies); format: cell-based, Mycobacterium abscessus; details: Mycobacteroides abscessus, read-out: MIC90 Mab complex
[6] = 7H9 medium (first value of cell)
[7] = CA-MHB medium (second value of cell)
[8] = Mycobacteroides abscessus, 7H9 medium (first value of cell)
[9] = Mycobacteroides abscessus, CA-MHB medium (second value of cell)

COc1ccc(CCN(C)CCCCCCCCCCC(C#N)(c2ccc(OC)c(OC)c2)C(C)C)cc1OC (stereo not drawn) [PhA9] was tested, and the MIC90 (Mab abscessus ATCC 19977; 7H9 broth (first value)) was 190 µM (≈ 105 µg/mL), the “MIC50 Mab abscessus ATCC 19977” value (Mab abscessus ATCC 19977; [6]) was 74/– ^e uM and the “MBC99.9 (10^3-fold kill)” value (M. bovis BCG [1]) was 2 x MIC90. The MIC90 ([2]; 7H9 broth (first value)) was 200 µM (≈ 111 µg/mL), the “MIC50 Mab bolletii CCUG 50184-T” value [2, 6] was 103/– ^e uM and the IC50 (Vero E6) was 15 µM. For the same compound, the MIC90 ([3]; 7H9 broth (first value)) was > 200 µM, the “MIC50 Mab massiliense CCUG 48898-T” value [3, 6] was 123/– ^e uM and the MIC50 (M. bovis BCG [4]) was 11 µM (≈ 6.08 µg/mL). The “MIC50 BCG With Glycerol” value (M. bovis BCG [4]) was 11 µM (≈ 6.08 µg/mL), the “MIC50 BCG Without Glycerol” value (M. bovis BCG [4]) was 22 µM (≈ 12.2 µg/mL) and the MIC90 (M. bovis BCG [4]) was 22 µM (≈ 12.2 µg/mL). The “MIC90 (Table S1)” value (M. bovis BCG [4]) was 22 µM (≈ 12.2 µg/mL), the “MIC90 BCG” value (M. bovis BCG [4]) was 12 µg/mL (≈ 21.7 µM) and the IC50 (HepG2) was 15 µM.

In the case of COc1ccc(CCN(C)CCCC(C#N)(CC=C(C)CCC=C(C)C)c2ccc(Cl)c(Cl)c2)cc1OC (stereo not drawn) [PhA13], the MIC90 (Mab abscessus ATCC 19977; 7H9 broth (first value)) is reported as > 250 µM, the “MIC50 Mab abscessus ATCC 19977” value (Mab abscessus ATCC 19977; [6]) is reported as >250/250 uM and the “MIC50 Mab abscessus ATCC 19977” value (Mab abscessus ATCC 19977; [7]) is reported as >250/250 uM. For the same compound, the MIC90 (Mab abscessus ATCC 19977; camH broth (second value)) was > 250 µM, the MIC90 ([2]; 7H9 broth (first value)) was > 250 µM and the MIC90 ([2]; camH broth (second value)) was > 250 µM. For the same compound, the IC50 (Vero E6) was 60 µM, the MIC90 ([3]; 7H9 broth (first value)) was > 250 µM and the “MIC50 Mab massiliense CCUG 48898-T” value [3, 6] was > 250 µM. The “MIC50 Mab massiliense CCUG 48898-T” value [3, 7] was 23 µM (≈ 12.8 µg/mL), the MIC90 ([3]; camH broth (second value)) was > 250 µM and the “MIC50 Mtb H37Rv” value (Mtb H37Rv) was 21 µM (≈ 11.7 µg/mL). For the same compound, the MIC90 (Mtb H37Rv) was 45 µM (≈ 25.1 µg/mL), the MIC50 (M. bovis BCG [4]) was 12 µM (≈ 6.69 µg/mL) and the “MIC50 BCG With Glycerol” value (M. bovis BCG [4]) was 12 µM (≈ 6.69 µg/mL). The “MIC50 BCG Without Glycerol” value (M. bovis BCG [4]) was 30 µM (≈ 16.7 µg/mL), the MIC90 (M. bovis BCG [4]) was 23 µM (≈ 12.8 µg/mL) and the “MIC90 (Table S1)” value (M. bovis BCG [4]) was 23 µM (≈ 12.8 µg/mL). For the same compound, the “MIC90 BCG” value (M. bovis BCG [4]) was 13 µg/mL (≈ 23.3 µM) and the IC50 (HepG2) was 42 µM.

With COc1ccc(CCN(C)CCCC(C#N)(C/C=C(\C)CCC=C(C)C)c2ccc(OC)c(OC)c2)cc1OC (racemic) [PhA3] the MIC90 (Mab abscessus ATCC 19977; 7H9 broth (first value)) was 104 µM (≈ 57.1 µg/mL), the “MIC50 Mab abscessus ATCC 19977” value (Mab abscessus ATCC 19977; [6]) was 47 µM (≈ 25.8 µg/mL) and the “MIC50 Mab abscessus ATCC 19977” value (Mab abscessus ATCC 19977; [7]) was 17 µM (≈ 9.33 µg/mL). For the same compound, the MIC90 (Mab abscessus ATCC 19977; camH broth (second value)) was 31 µM (≈ 17 µg/mL), the “CFUs above the detection limit” value (M. bovis BCG [5]) was 10–100 times and the MIC90 ([2]; 7H9 broth (first value)) was 98 µM (≈ 53.8 µg/mL). For the same compound, the “MIC50 Mab bolletii CCUG 50184-T” value [2, 6] was 47 µM (≈ 25.8 µg/mL), the “MIC50 Mab bolletii CCUG 50184-T” value [2, 7] was 13 µM (≈ 7.13 µg/mL) and the MIC90 ([2]; camH broth (second value)) was 26 µM (≈ 14.3 µg/mL). For the same compound, the IC50 (Vero E6) was 27 µM, the MIC90 ([3]; 7H9 broth (first value)) was 96 µM (≈ 52.7 µg/mL) and the “MIC50 Mab massiliense CCUG 48898-T” value [3, 6] was 42 µM (≈ 23 µg/mL). For the same compound, the “MIC50 Mab massiliense CCUG 48898-T” value [3, 7] was 10 µM (≈ 5.49 µg/mL), the MIC90 ([3]; camH broth (second value)) was 56 µM (≈ 30.7 µg/mL) and the “MIC50 seven Mab clinical isolates” value (clinical isolates of Mab; range over isolates) was 12 to 21 µg/mL. The “MIC50 Mtb H37Rv” value (Mtb H37Rv) was 19 µM (≈ 10.4 µg/mL), the MIC90 (Mtb H37Rv) was 42 µM (≈ 23 µg/mL) and the MIC50 (M. bovis BCG [4]) was 11 µM (≈ 6.04 µg/mL). For the same compound, the “MIC50 BCG With Glycerol” value (M. bovis BCG [4]) was 11 µM (≈ 6.04 µg/mL), the “MIC50 BCG Without Glycerol” value (M. bovis BCG [4]) was 18 µM (≈ 9.88 µg/mL) and the “MIC90 (Table S1)” value (M. bovis BCG [4]) was 22 µM (≈ 12.1 µg/mL). It also gave an IC50 (HepG2) of 32 µM.

CC[C@H]1OC(=O)[C@H](C)[C@@H](O[C@H]2C[C@@](C)(OC)[C@@H](O)[C@H](C)O2)[C@H](C)[C@@H](O[C@@H]2O[C@H](C)C[C@H](N(C)C)[C@H]2O)[C@](C)(OC)C[C@@H](C)C(=O)[C@H](C)[C@@H](O)[C@]1(C)O [CLR, clarithromycin, reference compound] showed an MIC90 (Mab abscessus ATCC 19977; Mycobacteroides abscessus, ATCC19977, 7H9 broth (first value)) of 0.5 µM (≈ 0.374 µg/mL), an MIC50 (Mab abscessus ATCC 19977; [8]) of 0.2 µM (≈ 0.15 µg/mL) and an MIC50 (Mab abscessus ATCC 19977; [9]) of 0.15 µM (≈ 0.112 µg/mL). The MIC90 (Mab abscessus ATCC 19977; Mycobacteroides abscessus, ATCC19977, camH broth (second value)) was 0.4 µM (≈ 0.299 µg/mL), the MIC90 ([2]; Mycobacteroides abscessus, CCUG50184, 7H9 broth (first value)) was 19 µM (≈ 14.2 µg/mL) and the MIC50 [2, 8] was 8.8 µM (≈ 6.58 µg/mL). For the same compound, the MIC50 [2, 9] was 1 µM (≈ 0.748 µg/mL), the MIC90 ([2]; Mycobacteroides abscessus, CCUG50184, camH broth (second value)) was 11 µM (≈ 8.23 µg/mL) and the MIC90 ([3]; Mycobacteroides abscessus, CCUG48898, 7H9 broth (first value)) was 2 µM (≈ 1.5 µg/mL). The MIC50 [3, 8] was 0.5 µM (≈ 0.374 µg/mL), the MIC50 [3, 9] was 0.1 µM (≈ 0.0748 µg/mL) and the MIC90 ([3]; Mycobacteroides abscessus, CCUG48898, camH broth (second value)) was 0.23 µM (≈ 0.172 µg/mL). For the same compound, the MIC50 (clinical isolates of Mab; Mab clinical isolate M9, 7H9 broth, read-out: MIC50 M9) was 0.1 µM (≈ 0.0748 µg/mL), the MIC50 (clinical isolates of Mab; Mab clinical isolate M111, 7H9 broth, read-out: MIC50 M111) was 0.08 µM (≈ 0.0598 µg/mL) and the MIC50 (clinical isolates of Mab; Mab clinical isolate M232, 7H9 broth, read-out: MIC50 M232) was 0.27 µM (≈ 0.202 µg/mL). The MIC50 (clinical isolates of Mab; Mab clinical isolate M337, 7H9 broth, read-out: MIC50 M337) was 0.15 µM (≈ 0.112 µg/mL), the MIC50 (clinical isolates of Mab; Mab clinical isolate M404, 7H9 broth, read-out: MIC50 M404) was 0.1 µM (≈ 0.0748 µg/mL) and the MIC50 (clinical isolates of Mab; Mab clinical isolate M422, 7H9 broth, read-out: MIC50 M422) was 0.22 µM (≈ 0.165 µg/mL). For the same compound, the MIC50 (clinical isolates of Mab; Mab clinical isolate M506, 7H9 broth, read-out: MIC50 M506) was 0.09 µM (≈ 0.0673 µg/mL), the MIC90 (Mab complex) was 0.1 to 8.8 µM and the MIC90 (Mab complex; range over subspecies, positive control) was 0.08 to 6.6 µg/mL.
